Experimental data published in patent US20090233906A1, “IMIDAZOAZEPINONE COMPOUNDS” (priority 2006, published 2009).
pIC50: −log10 of the molar value. Where two headings read alike, the source gives them in different places.

Tested on: human T-bet
Test: HEKT-bet-luc assay (normalized)
Format: cell-based
Experimental: HEKT-bet-luc assay: This assay measures a T-bet dependent reporter (luciferase) activity in engineered HEK cells that express a human T-bet and a T-box responsive element driving luciferase reporter. HEKT-bet cells were plated at 2×10^4/well in 96-well plate and compound was added into cell culture for 24 hours. Luciferase activity was measured by adding 50 μl of Steady-Glo reagent (Promega) and samples were read in Victor V reader (PerkinElmer). The activity of compound was determined by comparing compound treated samples to non-compound treated vehicle controls. The IC50 values were calculated utilizing a maximum value corresponding to the amount of luciferase in the absence of a test compound and a minimum value corresponding to a test compound value obtained at maximum inhibition.
Determination of Normalized HEKT-bet IC50 values: Compounds were assayed in microtiter plates. Each plate included a reference compound which was ER-819544. The un-normalized IC50 value for a particular compound was divided by the IC50 value determined for the reference compound in the same microtiter plate to provide a relative potency value. The relative potency value was then multiplied by the established potency of the reference compound to provide the normalized HEKT-bet IC50 value. […] The IC50 values provided herein were obtained using this normalization method.

[1] = Homo sapiens, HEK293, 24 h, normalized HEKT-bet-luc IC50, engineered HEK cells, T-box responsive luciferase reporter, compound 24 hours, normalized to reference ER-819544, read-out: IC50

## COc1cc2c(c(OC)c1)C(C)C=C1N(C2)C(=O)N(C)C12CCN(Cc1cccc3ncccc13)CC2 (centres unmarked) [compound 819688]
[1]
  pIC50: 6.54

## COc1cc2c(c(OC)c1)C(C)C=C1N(C2)C(=O)N(CC2CC2)C12CCN(Cc1cc(C)cc(C)c1)CC2 (centres unmarked) [compound 819991]
[1]
  pIC50: 6.92

## CCN1C(=O)N2Cc3cc(OC)cc(OC)c3/C=C/C=C\2C12CCN(Cc1cc(OC)cc(OC)c1)CC2 [compound 819702]
[1]
  pIC50: 6.22

## COc1cc(CN2CCC3(CC2)C2=CC(C)(C)c4c(cc(OC)cc4OC)CN2C(=O)N3Cc2ccccc2)cc(OC)c1 [compound 819662]
[1]
  pIC50: 6.05

## CCN1C(=O)N2Cc3cc(OC)cc(OC)c3C(C)(C)C=C2C12CCN(Cc1cc(OC)cc(OC)c1)CC2 [compound 819583]
[1]
  pIC50: 6.95

## COCCN1C(=O)N2Cc3cc(OC)cc(OC)c3C(C)(C)C=C2C12CCN(Cc1ccccc1)CC2 [compound 819641]
[1]
  pIC50: 7.01

## COCCN1C(=O)N2Cc3cc(OC)cc(OC)c3C(C)(C)C=C2C12CCN(Cc1cc(OC)cc(OC)c1OC)CC2 [compound 819752]
[1]
  pIC50: 7.15

## CCN1C(=O)N2Cc3cc(OC)cc(OC)c3C(C)C=C2C12CCN(Cc1cc(C)cc(C)c1)CC2 (racemic) [compound 819597]
[1]
  pIC50: 7.05

## CCN1C(=O)N2Cc3cc4c(cc3C(C)(C)C=C2C12CCN(Cc1cc(OC)cc(OC)c1)CC2)OCO4 [compound 819708]
[1]
  pIC50: 5.44

## COCCN1C(=O)N2Cc3cc(OC)ccc3C(C)(C)C=C2C12CCN(Cc1ccccc1)CC2 [compound 819613]
[1]
  pIC50: 5.88

## COc1cc2c(c(OC)c1)C(C)C=C1N(C2)C(=O)N(CC=C(C)C)C12CCN(Cc1cc(C)cc(C)c1)CC2 (centres unmarked) [compound 819995]
[1]
  pIC50: 6.48

## CCN1C(=O)N2Cc3cc(OC)cc(OC)c3C(C)C=C2C12CCN(Cc1cccc3cnccc13)CC2 (centres unmarked) [compound 819593]
[1]
  pIC50: 6.85

## COCCN1C(=O)N2Cc3cc(OC)cc(OC)c3C(C)(C)C=C2C12CCN(Cc1cc(OC)cc(OC)c1O)CC2 [compound 819750]
[1]
  pIC50: 7.39

## COc1cccc(CN2CCC3(CC2)C2=CC(C)(C)c4c(cc(OC)cc4OC)CN2C(=O)N3Cc2ccccc2)c1 [compound 819649]
[1]
  pIC50: 5.31

## COc1cc2c(c(OC)c1)C(C)(C)C=C1N(C2)C(=O)N(C)C12CCN(Cc1ccccc1)CC2 [compound 819629]
[1]
  pIC50: 6.08

## COc1cc2c(c(OC)c1)C(C)(C)C=C1N(C2)C(=O)N(C)C12CCN(Cc1ccc3ccccc3c1)CC2 [compound 819627]
[1]
  pIC50: 5.80

## COc1cc2c(c(OC)c1)C(C)(C)C=C1N(C2)C(=O)N(C)C12CCN(Cc1cccc3ccccc13)CC2 [compound 819637]
[1]
  pIC50: 6.13

## CCN1C(=O)N2Cc3cc(OC)cc(OC)c3C(C)C=C2C12CCN(Cc1cscc1Br)CC2 (centres unmarked) [compound 819558]
[1]
  pIC50: 6.13

## CCN1C(=O)N2Cc3cc(OC)cc(OC)c3C(C)C=C2C12CCN(Cc1cccc3nccnc13)CC2 (centres unmarked) [compound 819595]
[1]
  pIC50: 7.05

## CCN1C(=O)N2Cc3cc(OC)c(OC)c(OC)c3C(C)C=C2C12CCN(Cc1cccc3cccnc13)CC2 (centres unmarked) [compound 819755]
[1]
  pIC50: 7.28

## CCN1C(=O)N2Cc3cc(OC)cc(OC)c3C(C)(C)C=C2C12CCN(Cc1ccc3nc[nH]c3c1)CC2 [compound 819777]
[1]
  pIC50: 6.96

## CCN1C(=O)N2Cc3cc(OC)cc(OC)c3C(C)(C)C=C2C12CCN(Cc1cccc3nccnc13)CC2 [compound 819605]
[1]
  pIC50: 6.59

## CCN1C(=O)N2Cc3cc(OC)cc(OC)c3C(C)C=C2C12CCN(Cc1cccs1)CC2 (centres unmarked) [compound 819556]
[1]
  pIC50: 6.78

## COc1cc2c(c(OC)c1)C(C)(C)C=C1N(C2)C(=O)N(CCO)C12CCN(Cc1ccccc1)CC2 [compound 819642]
[1]
  pIC50: 6.44

## COCCN1C(=O)N2Cc3cc(OC)cc(OC)c3C(C)(C)C=C2C12CCN(Cc1cc(OC)cc(OC)c1C)CC2 [compound 819749]
[1]
  pIC50: 7.36

## COCCN1C(=O)N2Cc3cc(OC)cc(OC)c3C(C)(C)C=C2C12CCN(Cc1cc(OC)cc(OC)c1)CC2 [compound 819544]
[1]
  pIC50: 7.46

## CCN1C(=O)N2Cc3cc(OC)cc(OC)c3C(C)(C)C=C2C12CCN(Cc1cccc3ncccc13)CC2 [compound 819602]
[1]
  pIC50: 6.82

## COc1cc(CN2CCC3(CC2)C2=CC(C)(C)c4c(cc(OC)cc4OC)CN2C(=O)N3C)cc(OC)c1 [compound 819658]
[1]
  pIC50: 6.85

## CCN1C(=O)N2Cc3cc(OC)cc(OC)c3C(C)C=C2C12CCN(Cc1cccn1C)CC2 (centres unmarked) [compound 819772]
[1]
  pIC50: 6.99

## CCC1C=C2N(Cc3cc(OC)cc(OC)c31)C(=O)N(CCOC)C21CCN(Cc2cc(OC)cc(OC)c2)CC1 (centres unmarked) [compound 819549]
[1]
  pIC50: 7.82

## COCCN1C(=O)N2Cc3cc(OC)cc(OC)c3C(C)(C)C=C2C12CCN(Cc1cc(OC)cc(OC)c1)CC2 [ER-819544]
Homo sapiens, HEKT-bet-luc assay, value used for normalization, read-out: established potency of the reference compound (IC50)
  pIC50: 7.46

## CCN1C(=O)N2Cc3cc(OC)cc(OC)c3C(C)(C)C=C2C12CCN(Cc1cccc(OC)c1)CC2 [compound 819646]
[1]
  pIC50: 6.74

## CCN1C(=O)N2Cc3cc(OC)cc(OC)c3C(C)(C)C=C2C12CCN(Cc1cccc3cnccc13)CC2 [compound 819603]
[1]
  pIC50: 6.47

## CCC=C1C=C2N(Cc3cc(OC)cc(OC)c31)C(=O)N(CC)C21CCN(Cc2cc(OC)cc(OC)c2)CC1 [compound 819652]
[1]
  pIC50: 6.57

## COc1cc(CN2CCC3(CC2)C2=CC(C)(C)c4c(cc(OC)cc4OC)CN2C(=O)N3CCO)cc(OC)c1 [compound 819657]
[1]
  pIC50: 7.19
Normalized HEKT-bet-luc IC50, engineered HEK cells, T-box responsive luciferase reporter, compound 24 hours, normalized to reference ER-819544, read-out: IC50
  pIC50: 6.91

## CCN1C(=O)N2Cc3cc(OC)cc(OC)c3C(C)C=C2C12CCN(Cc1cc(Br)cc(Br)c1)CC2 (centres unmarked) [compound 819599]
[1]
  pIC50: 5.33

## CCN1C(=O)N2Cc3cc(OC)cc(OC)c3C(C)C=C2C12CCN(Cc1occ(C)c1C)CC2 (centres unmarked) [compound 819771]
[1]
  pIC50: 6.69

## COc1cc2c(c(OC)c1)C(C)(C)C=C1N(C2)C(=O)N(C)C12CCN(C/C=C/c1ccccc1)CC2 [compound 819634]
[1]
  pIC50: 5.94

## CCN1C(=O)N2Cc3cc(OC)cc(OC)c3C(C)C=C2C12CCN(Cc1ccco1)CC2 (centres unmarked) [compound 819768]
[1]
  pIC50: 6.74

## CCN1C(=O)N2Cc3cc(OC)cc(OC)c3C(C)C=C2C12CCN(Cc1cccc3ncccc13)CC2 (centres unmarked) [compound 819592]
[1]
  pIC50: 7.07

## CCN1C(=O)N2Cc3cc(OC)cc(OC)c3C(C)(C)C=C2C12CCN(Cc1cccc3cccnc13)CC2 [compound 819604]
[1]
  pIC50: 6.92

## CCN1C(=O)N2Cc3cc(OC)cc(OC)c3C(C)C=C2C12CCN(Cc1cn(C)c3ccccc13)CC2 (centres unmarked) [compound 819596]
[1]
  pIC50: 6.14

## COCCN1C(=O)N2Cc3cc(OC)cc(OC)c3C(C)(C)C=C2C12CCN(Cc1cc(C)cc(C)c1)CC2 [compound 819659]
[1]
  pIC50: 7.17

## CCN1C(=O)N2Cc3cc(OC)cc(OC)c3C(C)(C)C=C2C12CCN(Cc1cc(C)cc(C)c1)CC2 [compound 819607]
[1]
  pIC50: 6.30

## COc1cccc(CN2CCC3(CC2)C2=CC(C)(C)c4c(cc(OC)cc4OC)CN2C(=O)N3C)c1 [compound 819628]
[1]
  pIC50: 6.44

## CCN1C(=O)N2Cc3cc(OC)cc(OC)c3C(C)C=C2C12CCN(Cc1cccc3cccnc13)CC2 (centres unmarked) [compound 819594]
[1]
  pIC50: 7.22

## CCN1C(=O)N2Cc3cc(OC)cc(OC)c3C(C)C=C2C12CCN(Cc1cccc(OC)c1OC)CC2 (centres unmarked) [compound 819767]
[1]
  pIC50: 6.83

## COc1cccc(CN2CCC3(CC2)C2=CC(C)(C)c4c(cc(OC)cc4OC)CN2C(=O)N3Cc2ccc(-n3cccn3)cc2)c1 [compound 819650]
[1]
  pIC50: 6.17

## CCN1C(=O)N2Cc3cc(OC)cc(OC)c3C(C)C=C2C12CCN(Cc1ccc(C)o1)CC2 (centres unmarked) [compound 819770]
[1]
  pIC50: 6.57

## COc1cc2c(c(OC)c1)C(C)C=C1N(C2)C(=O)N(C)C12CCN(Cc1cccc3cccnc13)CC2 (centres unmarked) [compound 819689]
[1]
  pIC50: 6.77

## COCCN1C(=O)N2Cc3cc(OC)cc(OC)c3CC=C2C12CCN(Cc1cc(OC)cc(OC)c1)CC2 [compound 819673]
[1]
  pIC50: 6.99

## COc1cc(CN2CCC3(CC2)C2=CC(C)(C)c4c(cc(OC)cc4OC)CN2C(=O)N3Cc2cccc(-n3cccc3)c2)cc(OC)c1 [compound 819590]
[1]
  pIC50: 6.29

## CCN1C(=O)N2Cc3cc(OC)cc(OC)c3C(C)C=C2C12CCN(Cc1ccoc1)CC2 (centres unmarked) [compound 819769]
[1]
  pIC50: 6.72

## C=C1C=C2N(Cc3cc(OC)cc(OC)c31)C(=O)N(CC)C21CCN(Cc2cc(OC)cc(OC)c2)CC1 [compound 819703]
[1]
  pIC50: 6.61

## COCCN1C(=O)N2Cc3cc(OC)cc(OC)c3C(C)(C)C=C2C12CCN(Cc1cccc(OC)c1)CC2 [compound 819647]
[1]
  pIC50: 7.19

## COCCN1C(=O)N2Cc3cc(OC)cc(OC)c3C(C)C=C2C12CCN(Cc1cc(OC)cc(OC)c1)CC2 (centres unmarked) [compound 819543]
[1]
  pIC50: 7.82

## CCN1C(=O)N2Cc3cc(OC)cc(OC)c3C(C)C=C2C12CCN(Cc1cc(OC)cc(OC)c1)CC2 (centres unmarked) [compound 819582]
[1]
  pIC50: 8.00

## COc1cccc(CN2CCC3(CC2)C2=CC(C)(C)c4c(cc(OC)cc4OC)CN2C(=O)N3CCO)c1 [compound 819648]
[1]
  pIC50: 6.83

## COCCN1C(=O)N2Cc3ccccc3C(C)(C)C=C2C12CCN(Cc1cc(OC)cc(OC)c1)CC2 [compound 819677]
[1]
  pIC50: 5.99

## COc1cc(CN2CCC3(CC2)C2=CC(C)(C)c4c(cc(OC)cc4OC)CN2C(=O)N3CCO)c(F)c(OC)c1 [compound 819724]
[1]
  pIC50: 6.98

## COCCN1C(=O)N2Cc3cc(OC)ccc3C(C)(C)C=C2C12CCN(Cc1cc(OC)cc(OC)c1)CC2 [compound 819655]
[1]
  pIC50: 6.69
